Literature values as cited in US6441047B2, “Combination therapy for treating glaucoma” (Alcon Manufacturing Ltd.., priority 1995, dated 2002).

How the values were obtained:
[1] = Drugs of the Future, 1994, 19, 905-909
[2] = Drugs of the Future, 1994, 19, 905-909; remark: listed apart in the source
[3] = Drugs of the Future, 1994, 19, 905-909; remark: listed apart in the source

In the case of OC(CN1CCC(Cc2ccc(F)cc2)CC1)c1ccc(Cl)cc1 (stereo not drawn) [eliprodil], the blood-brain barrier penetration [1] is listed as “effectively crosses the blood-brain barrier”, the “incidence of adverse effects upon administration” value [2] is listed as “low incidence of adverse effects” and the oral bioavailability [3] is listed as “orally bioavailable”.
